This experiment relates to L1210 leukemia ip in BDF1 mice, survival T/C. Briefly: NCI In Vivo Anticancer Drug Screen. Data for tumor model L1210 Leukemia (intraperitoneal) in B6D2F1 (BDF1) mice. As to conditions: endpoint: mean survival time, higher = longer survival. Summed up: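 Tumor cells were implanted, animals were treated, and survival was followed. The result divides the treated measurement by the vehicle-control measurement.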

The mark [1] stands for this setting: dose: 100.0 mg/kg/injection, schedule: Q04DX003 (ip), vehicle: saline with Tween-80.
[2] abbreviates: dose: 200.0 mg/kg/injection, schedule: Q04DX003 (ip), vehicle: saline with Tween-80.
The mark [3] stands for this setting: dose: 400.0 mg/kg/injection, schedule: Q04DX003 (ip), vehicle: saline with Tween-80.
Where [4] appears, read: dose: 100.0 mg/kg/injection, schedule: Q01DX001 (ip), vehicle: carboxymethylcellulose (CMC).
Setting [5] is: dose: 200.0 mg/kg/injection, schedule: Q01DX001 (ip), vehicle: carboxymethylcellulose (CMC).
The mark [6] stands for this setting: dose: 400.0 mg/kg/injection, schedule: Q01DX001 (ip), vehicle: carboxymethylcellulose (CMC).
Setting [7] is: dose: 25.0 mg/kg/injection, schedule: Q01DX009 (ip), vehicle: Klucel (hydroxypropylcellulose) (HPC).
[8] abbreviates: dose: 100.0 mg/kg/injection, schedule: Q04DX003 (ip), vehicle: Klucel (hydroxypropylcellulose) (HPC).
Where [9] appears, read: dose: 200.0 mg/kg/injection, schedule: Q04DX003 (ip), vehicle: Klucel (hydroxypropylcellulose) (HPC).
[10] abbreviates: dose: 400.0 mg/kg/injection, schedule: Q04DX003 (ip), vehicle: Klucel (hydroxypropylcellulose) (HPC).

Several values for one entry are separate records, joined by “and”; a condition that tells them apart may be missing. Equal values may be shown once. Inconclusive results and toxic doses are left out.

For the molecule `O=C(Nc1ccc(CCNC2=NCCN2)cc1)c1ccc(C(=O)Nc2ccc(CCNC3=NCCN3)cc2)cc1`, the T/C was 107 % of control (dose: 1.0 mg/kg/injection, schedule: Q01DX Z (ip), vehicle: water); 109 % of control (dose: 1.5 mg/kg/injection, schedule: Q01DX Z (ip), vehicle: water); 158 % of control (dose: 3.0 mg/kg/injection, schedule: Q01DX Z (ip), vehicle: water); 167 % of control (dose: 3.75 mg/kg/injection, schedule: Q01DX Z (ip), vehicle: water); 151 % of control (dose: 7.5 mg/kg/injection, schedule: Q01DX Z (ip), vehicle: water); 216 % of control (dose: 10.0 mg/kg/injection, schedule: Q01DX Z (ip), vehicle: carboxymethylcellulose (CMC)). For the same molecule, the T/C is 92 % of control (dose: 15.0 mg/kg/injection, schedule: Q01DX Z (ip), vehicle: water); 180 % of control (dose: 20.0 mg/kg/injection, schedule: Q01DX Z (ip), vehicle: carboxymethylcellulose (CMC)); 118 % of control (dose: 40.0 mg/kg/injection, schedule: Q01DX Z (ip), vehicle: carboxymethylcellulose (CMC)); 101 % of control (dose: 62.0 mg/kg/injection, schedule: Q01DX Z (oral), vehicle: water); 108 % of control (dose: 80.0 mg/kg/injection, schedule: Q01DX Z (ip), vehicle: carboxymethylcellulose (CMC)); 100 % of control (dose: 125.0 mg/kg/injection, schedule: Q01DX Z (oral), vehicle: water). The T/C by setting is: (dose: 250.0 mg/kg/injection, schedule: Q01DX Z (oral), vehicle: water) 109 % of control; (dose: 500.0 mg/kg/injection, schedule: Q01DX Z (oral), vehicle: water) 101 % of control.

Take `NC1(c2ccccc2)CCCCC1`: the T/C is, setting by setting: (dose: 3.12 mg/kg/injection, schedule: Q01DX009 (ip), vehicle: saline) 110 % of control; (dose: 6.25 mg/kg/injection, schedule: Q01DX009 (ip), vehicle: saline) 104 % of control; (dose: 12.5 mg/kg/injection, schedule: Q01DX009 (ip), vehicle: saline) 105 % of control; (dose: 25.0 mg/kg/injection, schedule: Q01DX009 (ip), vehicle: saline) 103 % of control; (dose: 25.0 mg/kg/injection, schedule: Q04DX003 (ip), vehicle: saline) 98 % of control; (dose: 50.0 mg/kg/injection, schedule: Q01DX009 (ip), vehicle: saline) 105 % of control. In addition, for the setting “dose: 50.0 mg/kg/injection, schedule: Q04DX003 (ip), vehicle: saline”, the T/C was 101 % of control.

`Cc1cc(C)cc(C(C)C)c1`: the T/C by setting is: under setting [1], 96 % of control; under setting [2], 96 % of control; under setting [3], 93 % of control.

For the molecule `CC(C)c1ccc(C(=O)O)cc1S(=O)(=O)F`, the T/C by setting is: (dose: 100.0 mg/kg/injection, schedule: Q01DX009 (ip), vehicle: saline with Tween-80) 95 % of control; (dose: 200.0 mg/kg/injection, schedule: Q01DX009 (ip), vehicle: saline with Tween-80) 98 % of control.

As to `CCCCCCCC(C(=O)OCC)C(=O)OCC`, the T/C is 103 % of control under setting [4], 100 % of control under setting [5] and 100 % of control under setting [6].

Turning to `O=C(CCCc1ccc(N(CCCl)CCCl)cc1)Nc1ccc(F)cc1`, the T/C is 103 % of control (dose: 4.0 mg/kg/injection, schedule: Q12HX018 (ip), vehicle: other); 106 % of control (dose: 6.0 mg/kg/injection, schedule: Q12HX018 (ip), vehicle: other); 104 % of control (dose: 8.0 mg/kg/injection, schedule: Q12HX018 (ip), vehicle: other).

For the molecule `NC(N)=N/N=C/c1cc(Cl)ccc1O`, the T/C is 93 % of control (dose: 12.5 mg/kg/injection, schedule: Q04DX002 (ip), vehicle: Klucel (hydroxypropylcellulose) (HPC)); 93 % of control and 110 % of control (dose: 25.0 mg/kg/injection, schedule: Q04DX002 (ip), vehicle: Klucel (hydroxypropylcellulose) (HPC)); 106 % of control (dose: 100.0 mg/kg/injection, schedule: Q04DX002 (ip), vehicle: Klucel (hydroxypropylcellulose) (HPC)).

`Cc1cccc(CN2CCN(C(c3ccccc3)c3ccc(Cl)cc3)CC2)c1` (stereo not drawn): the T/C under setting [7] was 100 % of control; the T/C (dose: 25.0 mg/kg/injection, schedule: Q04DX003 (ip), vehicle: Klucel (hydroxypropylcellulose) (HPC)) is 100 % of control; the T/C (dose: 50.0 mg/kg/injection, schedule: Q01DX009 (ip), vehicle: Klucel (hydroxypropylcellulose) (HPC)) is 100 % of control; the T/C (dose: 50.0 mg/kg/injection, schedule: Q04DX003 (ip), vehicle: Klucel (hydroxypropylcellulose) (HPC)) is 110 % of control; the T/C (dose: 100.0 mg/kg/injection, schedule: Q01DX009 (ip), vehicle: Klucel (hydroxypropylcellulose) (HPC)) was 94 % of control; the T/C under setting [8] is 105 % of control. The T/C reads like this: (dose: 200.0 mg/kg/injection, schedule: Q01DX009 (ip), vehicle: Klucel (hydroxypropylcellulose) (HPC)) 87 % of control; under setting [9], 118 % of control; under setting [10], 89 % of control.

In the case of `CN(C)CCC(C(=O)N(C)C)(c1ccccc1)c1ccccc1`, the T/C was 94 % of control (dose: 75.0 mg/kg/injection, schedule: Q01DX001 (ip), vehicle: carboxymethylcellulose (CMC)) and 97 % of control (dose: 150.0 mg/kg/injection, schedule: Q01DX001 (ip), vehicle: carboxymethylcellulose (CMC)).

Take `O=[N+]([O-])c1ccc(Cl)c(CNc2ncnc3nc[nH]c23)c1`: the T/C is 92 % of control under setting [1], 93 % of control under setting [2] and 106 % of control under setting [3].

For `CCc1c2cc3c(cc2cc2c4cc5c(cc4cc[n+]12)OCO5)OCO3` (tested in a mixture with another compound), the T/C (dose: 3.13 mg/kg/injection, schedule: Q01DX009 (ip), vehicle: Klucel (hydroxypropylcellulose) (HPC)) is 122 % of control; the T/C (dose: 3.13 mg/kg/injection, schedule: Q04DX003 (ip), vehicle: Klucel (hydroxypropylcellulose) (HPC)) was 113 % of control; the T/C (dose: 6.25 mg/kg/injection, schedule: Q01DX009 (ip), vehicle: Klucel (hydroxypropylcellulose) (HPC)) was 110 % of control; the T/C (dose: 6.25 mg/kg/injection, schedule: Q04DX003 (ip), vehicle: Klucel (hydroxypropylcellulose) (HPC)) was 110 % of control; the T/C (dose: 12.5 mg/kg/injection, schedule: Q04DX003 (ip), vehicle: Klucel (hydroxypropylcellulose) (HPC)) is 113 % of control and 115 % of control.

For `C/C=C\C1OC1(C)c1cc(=O)c2c(C)cc3c(c2o1)C(=O)c1c(O)c(C2CC(C)(N(C)C)C(OC(C)=O)C(C)O2)cc(C2CC(N(C)C)C(O)C(C)O2)c1C3=O` (stereo not drawn), the T/C is 103 % of control (dose: 0.35 mg/kg/injection, schedule: Q01DX009 (ip), vehicle: saline with Tween-80); 102 % of control (dose: 0.7 mg/kg/injection, schedule: Q01DX009 (ip), vehicle: saline with Tween-80); 96 % of control (dose: 1.4 mg/kg/injection, schedule: Q01DX009 (ip), vehicle: saline with Tween-80); 88 % of control (dose: 2.8 mg/kg/injection, schedule: Q01DX009 (ip), vehicle: saline with Tween-80).

Turning to `O=C1C(Cl)=C(Nc2ccccc2Cl)C(=O)C(Cl)=C1Nc1ccccc1Cl`, the T/C is, setting by setting: (dose: 50.0 mg/kg/injection, schedule: Q01DX001 (ip), vehicle: carboxymethylcellulose (CMC)) 101 % of control; under setting [4], 101 % of control; under setting [1], 95 % of control; under setting [5], 90 % of control; under setting [2], 98 % of control; under setting [6], 95 % of control. Moreover, the T/C under setting [3] was 98 % of control.

Take `O=[N+]([O-])c1ccc(/C=N/N2CCOCC2)s1`: the T/C (dose: 100.0 mg/kg/injection, schedule: Q04DX003 (ip), vehicle: saline) is 102 % of control; the T/C (dose: 200.0 mg/kg/injection, schedule: Q04DX003 (ip), vehicle: saline) was 97 % of control; the T/C (dose: 400.0 mg/kg/injection, schedule: Q04DX003 (ip), vehicle: saline) was 102 % of control.

In the case of `CC[n+]1ccc(/C=C\c2c(Cl)cccc2Cl)cc1`, the T/C is 100 % of control (dose: 12.5 mg/kg/injection, schedule: Q01DX009 (ip), vehicle: Klucel (hydroxypropylcellulose) (HPC)); 100 % of control under setting [7]; 100 % of control under setting [8]; 100 % of control under setting [9]; 112 % of control under setting [10].

The record behind these values is PubChem BioAssay AID248 (DTP/NCI, 2004).
